Key:
Vfr = target: T1, Vfr (Pseudomonas aeruginosa, UniProt P55222); assay: biochemical; type: binding
T1 construct: purified protein

[1] = target: T2, Pseudomonas aeruginosa MucB protein (Pseudomonas aeruginosa, UniProt P38108 22-316); assay: SPR; purified MucB subjected to MucA binding (control); which partner was immobilised, buffer and temperature are not told in the text shown; conditions: both partners purified
T2 sequence: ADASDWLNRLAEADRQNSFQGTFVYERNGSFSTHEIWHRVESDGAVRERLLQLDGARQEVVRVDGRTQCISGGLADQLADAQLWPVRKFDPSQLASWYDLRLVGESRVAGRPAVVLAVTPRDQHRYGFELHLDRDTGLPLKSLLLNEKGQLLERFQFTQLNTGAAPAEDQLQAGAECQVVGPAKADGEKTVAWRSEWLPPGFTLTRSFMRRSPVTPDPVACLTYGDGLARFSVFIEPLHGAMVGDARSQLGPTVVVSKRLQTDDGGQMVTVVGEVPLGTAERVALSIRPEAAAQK

T1 sequence (P55222 whole entry): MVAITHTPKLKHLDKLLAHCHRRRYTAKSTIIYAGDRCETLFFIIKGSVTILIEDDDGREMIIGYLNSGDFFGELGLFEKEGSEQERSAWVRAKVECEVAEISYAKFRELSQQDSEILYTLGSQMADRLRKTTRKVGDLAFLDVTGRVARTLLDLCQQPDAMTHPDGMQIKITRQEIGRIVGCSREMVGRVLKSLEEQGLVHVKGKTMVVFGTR

Molecule: C[C@]12CC[C@@H]3c4ccc(O)cc4CC[C@H]3[C@@H]1C[C@@H](O)[C@@H]2O [E3, estriol]
- Kd (Vfr): 750 to 782 µM

Molecule: C[C@]12CC[C@H]3[C@@H](CCC4=CC(=O)CC[C@@]43C)[C@@H]1CC[C@@H]2O [T, testosterone]
- Kd (Vfr): 1700 to 1800 µM

B1: MucA (natural protein)
chain: YNQNDALPQMAQQGTTPQIALPQVKGPAVLAGYSEEQGAPQVITNSSSSDTRWHEQRLPIYLRQHVQQSAVSGTESALPYARAASLENR
notes: also called anti-sigma factor
- Kd [1]: 2.93 µM
